Measurements as given in patent US20100210649A1, “PYRIDAZINONES AND FURAN-CONTAINING COMPOUNDS” (Sloan-Kettering Institute for Cancer Research, priority 2006, published 2010).
Where two headings read alike, the source gives them in different places.

What was measured:
H1650 = assay: Non Small Cell Lung Cancer proliferation assay (Alamar Blue reduction), H1650; assay type: cell-based, human; details: for IC50 / inhibition at 10 µM: Homo sapiens; for inhibition at 10 µM: NCI-H1650, primary screening
Method in brief: (§1)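 Viability after 48 hours of drug exposure at 37° C is scored by Alamar Blue reduction over a subsequent 48 hours, read at 530/590 nm. DMSO-only wells (1% final) define the high control.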

H2030 = assay: Non Small Cell Lung Cancer proliferation assay (Alamar Blue reduction), H2030; assay type: cell-based, human; details: for IC50 / inhibition at 10 µM: Homo sapiens; for inhibition at 10 µM: NCI-H2030, primary screening
Method in brief: as §1

H3255 = assay: Non Small Cell Lung Cancer proliferation assay (Alamar Blue reduction), H3255; assay type: cell-based, human; details: for IC50 / inhibition at 10 µM: Homo sapiens; for inhibition at 10 µM: NCI-H3255, primary screening
Method in brief: as §1

[1] = system: HPL1D (human peripheral lung epithelial) cell line; assay: Cell proliferation / dose response (Alamar Blue), HPL1D; assay type: cell-based; details: read-out: IC50 HPL1D
Method: WI-38: human lung fibroblast cell line. […] WT: wildtype; WT*: over-expressed wildtype. Dose response studies against 34 compounds from the pyridazinone and phenylfuran-carboxamide class were conducted. […] In addition, Tarceva was included in these dose response studies. The dose response studies were done with the following standard procedure. […] The cells were incubated for 48 hours at 37 C to complete treatment, and then alamar blue was added for an additional 48 hours. Finally, alamar blue reduction was measured and the data was loaded into ORIS, our data screening acquisition platform.

H820 = assay: Dose response study (Alamar Blue), H820; assay type: cell-based; details: Homo sapiens, read-out: IC50 H820
Method: (§2) Dose response studies against 34 compounds from the pyridazinone and phenylfuran-carboxamide class were conducted. […] In addition, Tarceva was included in these dose response studies.
(§3) The dose response studies were done with the following standard procedure. First, the cells were counted and dispensed at 250 cells/well into 384-well microplates with compound. The cells were incubated for 48 hours at 37 C to complete treatment, and then alamar blue was added for an additional 48 hours. Finally, alamar blue reduction was measured and the data was loaded into ORIS, our data screening acquisition platform.

PC9 = assay: Dose response study (Alamar Blue), PC9; assay type: cell-based; details: Homo sapiens, read-out: IC50 PC9
Method: as §2, §3

A549 = assay: Dose response study (Alamar Blue), A549; assay type: cell-based; details: Homo sapiens, read-out: IC50 A549
Method: as §2, §3

H23 = assay: Dose response study (Alamar Blue), H23; assay type: cell-based; details: Homo sapiens, read-out: IC50 H23
Method: as §2, §3

H460 = assay: Dose response study (Alamar Blue), H460; assay type: cell-based; details: Homo sapiens, read-out: IC50 H460
Method: as §2, §3

H2444 = assay: Dose response study (Alamar Blue), H2444; assay type: cell-based; details: Homo sapiens, read-out: IC50 H2444
Method: as §2, §3

[2] = NCI-H1650, 48 h, H1650, 12 point doubling dilution 10 uM to 5 nM, 48 h treatment, alamar blue additional 48 h, read-out: IC50 H1650
[3] = NCI-H1650, dose response 10 M to 5 nM, IC50, read-out: Dose Response (uM) H1650
[4] = NCI-H2030, 48 h, H2030, 12 point doubling dilution 10 uM to 5 nM, 48 h treatment, alamar blue additional 48 h, read-out: IC50 H2030
[5] = NCI-H2030, dose response 10 M to 5 nM, IC50, read-out: Dose Response (uM) H2030
[6] = NCI-H3255, 48 h, H3255, 12 point doubling dilution 10 uM to 5 nM, 48 h treatment, alamar blue additional 48 h, read-out: IC50 H3255
[7] = NCI-H3255, dose response 10 M to 5 nM, IC50, read-out: Dose Response (uM) H3255
[8] = HPL1D, 12 point doubling dilution 10 uM to 5 nM, 48 h treatment, alamar blue additional 48 h
[9] = NCI-H820, H820, 12 point doubling dilution 10 uM to 5 nM, 48 h treatment, alamar blue additional 48 h
[10] = PC-9, PC9, 12 point doubling dilution 10 uM to 5 nM, 48 h treatment, alamar blue additional 48 h
[11] = A549, 12 point doubling dilution 10 uM to 5 nM, 48 h treatment, alamar blue additional 48 h
[12] = NCI-H23, H23, 12 point doubling dilution 10 uM to 5 nM, 48 h treatment, alamar blue additional 48 h
[13] = NCI-H460, H460, 12 point doubling dilution 10 uM to 5 nM, 48 h treatment, alamar blue additional 48 h
[14] = NCI-H2444, H2444, 12 point doubling dilution 10 uM to 5 nM, 48 h treatment, alamar blue additional 48 h
[15] = percentage inhibition, 10 μM compound in 1% DMSO (v/v)

| Structure (SMILES) | IC50 (H1650; [2]) [µM] | IC50 (H1650; [3]) [µM] | IC50 (H2030; [4]) [µM] | IC50 (H2030; [5]) [µM] | IC50 (H3255; [6]) [µM] | IC50 (H3255; [7]) [µM] | IC50 (H820; [9]) [nM] | IC50 (PC9; [10]) [nM] | IC50 (A549; [11]) [nM] | IC50 (H460; [13]) [nM] | IC50 (H2444; [14]) [nM] | IC50 [1, 8] [nM] | IC50 (H23; [12]) [nM] | other results |
| --- | --- | --- | --- | --- | --- | --- | --- | --- | --- | --- | --- | --- | --- | --- |
| O=c1c(Cl)c(Cl)cnn1-c1ccccc1 [compound 257014] | 1.64 | 3.18 | 0.41 | 0.55 | 1.5 | 1.36 |  |  |  |  |  |  |  | IC50 ([1]; 48 h): 380 nM; IC50 (H820; NCI-H820, 48 h): 240 nM; IC50 (PC9; PC-9, 48 h): 830 nM; IC50 (A549; A549, 48 h): 1680 nM; IC50 (H23; NCI-H23, 48 h): 260 nM; IC50 (H460; NCI-H460, 48 h): 2010 nM; IC50 (H2444; NCI-H2444, 48 h): 340 nM |
| Cc1cc(-n2ncc(Cl)c(Cl)c2=O)ccc1Cl [compound 267065] | > 10 | > 10 | > 10 | > 10 | > 10 | > 10 | > 10000 | > 10000 | > 10000 | > 10000 | 6370 | 6660 | 6960 |  |
| CCCCc1cccc(-n2ncc(Cl)c(Cl)c2=O)c1 [compound 267063] | > 10 | 5.82 | 6.43 | 2.75 | 8.35 | 3.89 | 6240 | 8890 | > 10000 | > 10000 |  | 7040 | 5470 |  |
| Cc1ccc(NC(=O)c2ccc([N+](=O)[O-])o2)cc1 [compound 98697] | 0.6 |  | 1.18 |  | 2.72 |  |  |  |  |  |  |  |  | IC50 (H1650; NCI-H1650, phenylfuran-2-carboxamide SAR summary, read-out: IC50(uM) 1650): 0.44 µM; inhibition at 10 µM (H1650; H1650, 10 μM compound in 1% DMSO (v/v), read-out: PRIMARY HTS [%] H1650 (percentage inhibition)): 103%; CONFIRMATION [%] 1650 (H1650; [15]): 136%; IC50 (H2030; NCI-H2030, phenylfuran-2-carboxamide SAR summary, read-out: IC50(uM) 2030): 1.06 µM; inhibition at 10 µM (H2030; H2030, 10 μM compound in 1% DMSO (v/v), read-out: PRIMARY HTS [%] H2030 (percentage inhibition)): 62%; CONFIRMATION [%] 2030 (H2030; [15]): 101%; IC50 (H3255; NCI-H3255, phenylfuran-2-carboxamide SAR summary, read-out: IC50(uM) 3255): 0.91 µM; inhibition at 10 µM (H3255; H3255, 10 μM compound in 1% DMSO (v/v), read-out: PRIMARY HTS [%] H3255 (percentage inhibition)): 83%; CONFIRMATION [%] 3255 (H3255; [15]): 130%; IC50 ([1]; 48 h): > 10000 nM; IC50 (H820; NCI-H820, 48 h): 3530 nM; IC50 (PC9; PC-9, 48 h): 2170 nM; IC50 (A549; A549, 48 h): 1810 nM; IC50 (H23; NCI-H23, 48 h): 910 nM; IC50 (H460; NCI-H460, 48 h): 2200 nM; IC50 (H2444; NCI-H2444, 48 h): 4790 nM |
| CCc1cccc(-n2ncc(Cl)c(Cl)c2=O)c1 [compound 267062] | 1.91 | 2.48 | 0.54 | 0.72 | 1.51 | 1.5 | 450 | 1510 | 2810 | 2880 | 430 | 380 | 390 |  |
| Cc1ccc(-n2ncc(Cl)c(Cl)c2=O)cc1 [compound 257016] | 2.49 | 2.73 | 0.51 | 0.65 | 1.53 | 1.32 | 370 | 1130 | 2630 | 2550 | 410 | 480 | 320 |  |

More lines, in order of falling IC50 (H1650; [2]), values ahead:

| IC50 (H1650; [2]) [µM] | IC50 (H1650; [3]) [µM] | IC50 (H2030; [4]) [µM] | IC50 (H2030; [5]) [µM] | IC50 (H3255; [6]) [µM] | IC50 (H3255; [7]) [µM] | IC50 (H820; [9]) [nM] | IC50 (PC9; [10]) [nM] | IC50 (A549; [11]) [nM] | IC50 (H460; [13]) [nM] | IC50 (H2444; [14]) [nM] | Structure (SMILES) | IC50 [1, 8] [nM] | IC50 (H23; [12]) [nM] | other results |
| --- | --- | --- | --- | --- | --- | --- | --- | --- | --- | --- | --- | --- | --- | --- |
| 1.08 | 1.06 | 0.26 | 0.57 | 0.65 | 0.35 | 200 | 740 | 1070 | 910 | 280 | COc1cccc(-n2ncc(Br)c(Br)c2=O)c1 [compound 267083] | 220 | 210 |  |
| 1.04 | 1.51 | 0.22 | 0.61 | 0.71 | 0.38 | 180 | 680 | 840 | 890 | 230 | COCCOc1cccc(-n2ncc(Br)c(Br)c2=O)c1 [compound 267084] | 180 | 170 |  |
| 0.8 | 1.44 | 0.32 | 0.34 | 0.66 | 0.73 | 280 | 900 | 1190 | 1260 | 210 | O=c1c(Cl)c(Cl)cnn1-c1cccc(C(F)(F)F)c1 [compound 176729] | 250 | 230 | inhibition at 10 µM (H1650; 10 μM compound in 1% DMSO (v/v), read-out: percentage inhibition H1650): 100%; inhibition at 10 µM (H2030; 10 μM compound in 1% DMSO (v/v), read-out: percentage inhibition H2030): -3%; inhibition at 10 µM (H3255; 10 μM compound in 1% DMSO (v/v), read-out: percentage inhibition H3255): 115% |
| 0.51 | 1.36 | 0.47 | 0.67 | 0.99 | 1.11 | 290 | 970 | 1650 | 1470 | 400 | NCCCOc1cccc(-n2ncc(Br)c(Br)c2=O)c1 [compound 273634] | 350 | 380 |  |
